Data reported in ChEMBL document CHEMBL1681734, “hNK2 receptor antagonists. The use of intramolecular hydrogen bonding to increase solubility and membrane permeability” (Bioorg Med Chem Lett, 2011).
Converted amounts (≈) assume the structure as drawn.

What was measured:
[1] = Aqueous solubility of the compound at pH 6.4; type: physicochemical
Substance-K receptor = target: T1, Substance-K receptor (Homo sapiens, UniProt P21452); assay: Displacement of [125I]neurokinin A from human NK2 receptor after 30 mins
T1 sequence (P21452 whole entry): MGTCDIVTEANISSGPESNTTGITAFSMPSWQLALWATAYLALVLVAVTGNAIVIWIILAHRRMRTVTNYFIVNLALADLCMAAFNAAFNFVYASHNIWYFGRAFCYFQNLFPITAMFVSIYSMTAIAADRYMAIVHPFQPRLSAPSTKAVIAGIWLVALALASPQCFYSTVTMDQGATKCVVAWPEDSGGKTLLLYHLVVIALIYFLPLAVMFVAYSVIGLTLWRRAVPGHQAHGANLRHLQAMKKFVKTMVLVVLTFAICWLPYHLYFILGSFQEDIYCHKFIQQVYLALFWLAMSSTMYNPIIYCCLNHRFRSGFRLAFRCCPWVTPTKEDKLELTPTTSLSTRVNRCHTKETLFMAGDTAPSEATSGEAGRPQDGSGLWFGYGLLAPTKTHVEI

[2] = Permeability across apical to basolateral side in human Caco2 cells at 100 uM; type: ADME, cell-based; settings: Caco-2, read-out: permeability
[3] = Membrane permeability by PAMPA assay; type: ADME; settings: read-out: permeability

Row | Compound | solubility [1] [µg/mL] | Ki (Substance-K receptor) [nM] | Papp A→B at 100 µM [2] [×10⁻⁶ cm/s] | Papp [3] [×10⁻⁶ cm/s]
1 | O=C(NC1(C(=O)N[C@@H](Cc2ccccc2)C(=O)NCC2CCN(CC3CCOCC3)CC2)CCCC1)c1ccc(-n2cccc2)cc1 | 1450 (≈ 2.27 mM) | 0.234 | < 1 | –
2 | O=C(NC1(C(=O)N[C@@H](Cc2ccccc2)C(=O)NCC2CCN(CC3CCOCC3)CC2)CCCC1)c1ccc(-n2cccc2)cc1Cl | > 2820 | 3.98 | 4.21 | 0.16
3 | O=C(NC1(C(=O)N[C@@H](Cc2ccccc2)C(=O)NCC2CCN(CC3CCOCC3)CC2)CCCC1)c1ccc(-n2cccc2)cc1F | > 2860 | 3.24 | 13.8 | 0.66
4 | CCCCc1ccc(C(=O)NC2(C(=O)N[C@@H](Cc3ccccc3)C(=O)NCC3CCN(CC4CCOCC4)CC3)CCCC2)cc1 | > 2410 | – | – | –

Other lines, results leading:

Row | solubility [1] [µg/mL] | Ki (Substance-K receptor) [nM] | Papp A→B at 100 µM [2] [×10⁻⁶ cm/s] | Papp [3] [×10⁻⁶ cm/s] | Compound
5 | > 6600 | – | – | – | CCCCc1ccc(C(=O)NC2(C(=O)N[C@@H](Cc3ccccc3)C(=O)NCC3CCN(CC4CCOCC4)CC3)CCCC2)nc1
6 | 1570 (≈ 2.57 mM) | 0.324 | 14.7 | 5.96 | O=C(NC1(C(=O)N[C@H](CCCN2CCN(CC3CCOCC3)CC2)Cc2ccccc2)CCCC1)c1ccc2ccccc2c1
7 | 2800 (≈ 4.58 mM) | 2.04 | 25.2 | 15.5 | O=C(NC1(C(=O)N[C@H](CCCN2CCN(CC3CCOCC3)CC2)Cc2ccccc2)CCCC1)c1cc2ccccc2cn1
8 | 3070 (≈ 4.79 mM) | 8.32 | 13.6 | 11.9 | COc1cc2ccccc2cc1C(=O)NC1(C(=O)N[C@H](CCCN2CCN(CC3CCOCC3)CC2)Cc2ccccc2)CCCC1
9 | 1910 (≈ 2.98 mM) | 44.7 | 11.7 | 6.77 | COc1c(C(=O)NC2(C(=O)N[C@H](CCCN3CCN(CC4CCOCC4)CC3)Cc3ccccc3)CCCC2)ccc2ccccc12
